# Experimental data published in patent US10597380B2, “Pyridazinone-based broad spectrum anti-influenza inhibitors” (Hoffmann-La Roche Inc., priority 2017, dated 2020).
# System: Influenza A/WSN/33-Luciferase virus
# Test: microbe, parasite or virus in culture
# Type: cell-based
# Conditions: A549, 72 h, luciferase signal three days later, read-out: IC50 antiviral activity (Luciferase reporter assay)
row,SMILES,IC50
1,"CN(C)S(=O)(=O)CCCn1cccc(Nc2nn(-c3ccc(OC(F)(F)F)cc3)c(=O)c3ccccc23)c1=O [Example 75, N,N-dimethyl-3-[2-oxo-3-[[4-oxo-3-[4-(trifluoromethoxy)phenyl]phthalazin-1-yl]amino]-1-pyridyl]propane-1-sulfonamide]",25 nM
2,"Cn1cccc(Nc2nn(-c3ccc(OC(F)(F)F)cc3)c(=O)c3c2CCCC3)c1=O [Example 21, 4-[(1-methyl-2-oxo-3-pyridyl)amino]-2-[4-(trifluoromethoxy)phenyl]-5,6,7,8-tetrahydrophthalazin-1-one]",5 nM
3,"COc1cc(-n2nc(Nc3cccn(C)c3=O)c3c(c2=O)CCC3)ccc1C(F)(F)F [Example 173, 3-[3-Methoxy-4-(trifluoromethyl)phenyl]-1-[(1-methyl-2-oxo-3-pyridyl)amino]-6,7-dihydro-5H-cyclopenta[d]pyridazin-4-one]",74600 nM
4,"COC(=O)N1CCc2c(Nc3cccn(C)c3=O)nn(-c3ccc(OC(F)(F)F)cc3)c(=O)c2C1 [Example 153, Methyl 1-[(1-methyl-2-oxo-3-pyridyl)amino]-4-oxo-3-[4-(trifluoromethoxy)phenyl]-7,8-dihydro-5H-pyrido[3,4-d]pyridazine-6-carboxylate]",61 nM
5,"CNC(=O)c1cc(Nc2nn(-c3ccc(OC(F)(F)F)cc3)c(=O)c3ccccc23)c(=O)n(C)c1 [Example 175, N,1-Dimethyl-6-oxo-5-[[4-oxo-3-[4-(trifluoromethoxy)phenyl]phthalazin-1-yl]amino]pyridine-3-carboxamide]",74400 nM
6,"CN(C)C(=O)CCCn1cccc(Nc2nn(-c3ccc(OC(F)(F)F)cc3)c(=O)c3c2CCC3)c1=O [Example 106, N,N-dimethyl-4-[2-oxo-3-[[4-oxo-3-[4-(trifluoromethoxy)phenyl]-6,7-dihydro-5H-cyclopenta[d]pyridazin-1-yl]amino]-1-pyridyl]butanamide]",14 nM
7,"Cn1cccc(Nc2nn(-c3ccc(OC(F)(F)F)cc3)c(=O)c3ccc(O)cc23)c1=O [Example 126, 6-Hydroxy-4-[(1-methyl-2-oxo-3-pyridyl)amino]-2-[4-(trifluoromethoxy)phenyl]phthalazin-1-one]",191 nM
8,"CN(C)CCn1cncc(Nc2nn(-c3ccc(OC(F)(F)F)cc3)c(=O)c3c2CCC3)c1=O [Example 50, 1-[[1-[2-(dimethylamino)ethyl]-6-oxo-pyrimidin-5-yl]amino]-3-[4-(trifluoromethoxy)phenyl]-6,7-dihydro-5H-cyclopenta[d]pyridazin-4-one]",28 nM
